In patent US9890176B2, “Mannose derivatives for treating bacterial infections” (Vertex Pharmaceuticals Incorporated, priority 2013, dated 2018):

Columns and labels:
[1] = molecular target: T1, carbohydrate recognition domain of the protein FimH (M1-T179) (Escherichia coli, UniProt P08191); assay: Thermal Shift Assay; type: binding, E. coli; details: 5.6 μM protein, 56 μM ligand; DMSO control as reference; ± standard error of the mean (number of repeats)
T1 construct: domain of the protein FimH (M1-T179) with an uncleavable C-terminus 6-His tag; made in house; host or cells: E. coli (pET21b plasmid)
T1 sequence (P08191 22-179 limits assumed): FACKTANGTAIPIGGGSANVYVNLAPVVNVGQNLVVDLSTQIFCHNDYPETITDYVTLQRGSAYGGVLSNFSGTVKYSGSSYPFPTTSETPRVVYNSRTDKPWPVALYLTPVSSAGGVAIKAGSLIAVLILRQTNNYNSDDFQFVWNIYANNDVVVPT
Protocol: The carbohydrate recognition domain of the protein FimH (M1-T179) with an uncleavable C-terminus 6-His tag is cloned in a pET21b plasmid and expressed in E. coli and purified to homogeneity. The thermal stabilization of the protein upon ligand binding is measured in a 96-well format on a ViiA™ 7 (Life Technologies, Carlsbad, Calif.) RT-PCR instrument. The assay is conducted in duplicate in 20 mM Tris pH 7.4 and 150 mM NaCl at a final concentration of 5.6 μM and 56 μM for protein and ligand, respectively. An environmentally-sensitive dye (Applied Biosystems Protein Thermal Shift™ Dye (P/N 4461141)) is added to each well to a final ratio of 1:1000. Plates are spun at 1000×g for 1 minute and incubated at room temperature for 10 minutes. Thermal stability of protein with and without ligand is measured from 45° C. to 85° C. at a scan rate of 0.05° C./sec. The resulting data is analyzed using Protein Thermal Shift™ Software (version 1.1) with DMSO control used as reference.

[2] = Mouse Feces Stability Assay; type: in vitro ADME; details: 100 uM in mouse feces supernatant, pH 6.5, 37° C.
Protocol: The mouse feces stability assay can be used to measure the stability of FimH antagonists in an environment that mimics the gut. Fresh mouse feces samples from a number of animals (at least 4) are homogenized with 10 volumes (w/v) of 100 mM potassium phosphate buffer (pH 6.5) using a Stomacher device. The feces mixture is then centrifuged 5 min at 2000 g and the supernatant is collected for incubation. Compounds to be tested are spiked at 100 uM in the feces supernatant and incubated at 37° C. up to 6 hours. The enzymatic reaction is stopped by adding 9 volumes of acetonitrile containing 0.1% formic acid and an internal standard. The mixture is centrifuged and the supernatants are analyzed by HPLC-MS/MS to assess percentage of parent remaining relative to a control sample.

[3] = system: bacterial strain LF82 binding to the glycoprotein BSA-(Mannose)3; assay: Bacterial Binding Assay (BBA); type: cell-based, Escherichia coli; details: read-out: Bacterial Binding Assay IC50
In short: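 Luciferase-tagged E. coli LF82 grown overnight at 37° C without shaking, then added at 2×10^8 bacteria/mL (10^7 per well) to wells coated with 0.5-2 μg/mL BSA-(Man)3 and blocked with 2% BSA. Compound in 0.2% BSA/D-PBS; binding 40-75 min at room temperature. Washed; bound bacteria read by luciferase luminescence; IC50.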

[4] = Mouse Excretion Study Following FimH Antagonist Oral Dosing; type: in vivo; details: 10 mg/kg orally, collection up to 72 h
Protocol: Mice are dosed 10 mg/kg orally (10 mL/kg; 0.5% methocel) with FimH antagonists and urine and feces are collected on ice up to 72 h in excretion cages. Post-collection, feces samples are diluted with 10 volumes of water and homogenized using a Stomacher device. Feces mixture and urine samples are then quenched with acetonitrile containing an internal standard, centrifuged, and the supernatants are then diluted with 1 volume of water prior to analysis by HPLC-MS/MS in SRM mode.

[5] = Human Feces Stability Assay; type: in vitro ADME; details: 100 uM in human feces supernatant (3 donors), pH 6.5, 37° C.
Protocol: The human feces stability assay ca be used to measure the stability of FimH antagonists in an environment that mimics the gut. Fresh human feces samples from 3 donors are homogenized with 10 volumes (w/v) of 100 mM potassium phosphate buffer (pH 6.5) using a Stomacher device. The feces mixture is then centrifuged 5 min at 2000 g and supernatant is collected for incubations. Compounds to be tested are spiked at 100 uM in feces supernatant and incubated at 37° C. up to 24 hours. The enzymatic reaction is stopped by adding 9 volumes of acetonitrile containing 0.1% formic acid and internal standard. The mixture is centrifuged and the supernatants are analysed by HPLC-MS/MS to assess percentage of parent remaining relative to a control sample.

| % Oral dose recovered intact in mice feces [4] | % Oral dose recovered intact in mice urine [4] | In vitro human feces stability - % Parent remaining at 24 h [5] | Compound | Delta Thermal melt [1] | In vitro mice feces stability - % Parent remaining at 6 h [2] | IC50 [3] |
| --- | --- | --- | --- | --- | --- | --- |
|  |  |  | CNC(=O)c1cccc(-c2ccc(O[C@H]3O[C@H](CF)[C@@H](O)[C@H](O)[C@@H]3O)cc2)c1 [Example 12, 4′-(((2R,3S,4S,5S,6S)-6-(fluoromethyl)-3,4,5-trihydroxytetrahydro-2H-pyran-2-yl)oxy)-N-methyl-[1,1′-biphenyl]-3-carboxamide] | 0.06 ± 0.11 (2) ° C. | 118% |  |
|  |  |  | CNC(=O)c1cccc(-c2ccc(O[C@H]3O[C@H](CO)[C@@H](O)[C@H](O)[C@@H]3F)c(C(F)(F)F)c2)c1 [Example 4, 3-[4-[(2R,3S,4S,5S,6R)-3-fluoro-4,5-dihydroxy-6-(hydroxymethyl)tetrahydropyran-2-yl]oxy-3-(trifluoromethyl)phenyl]-N-methyl-benzamide] | 5.6 (1) ° C. | 108% | 470 ± 32 nM |
|  |  |  | CNC(=O)c1cccc(-c2ccc(O[C@H]3O[C@H](CO)[C@@H](O)[C@H](O)[C@@H]3F)c(C)c2)c1 [Example 6, 3-[4-[(2R,3S,4S,5S,6R)-3-fluoro-4,5-dihydroxy-6-(hydroxymethyl)tetrahydropyran-2-yl]oxy-3-methyl-phenyl]-N-methyl-benzamide] | 4.905 ± 0.195 (2) ° C. | 108% | 750 ± 141 nM |
| 8.4% | 0.20% | 35% | CNC(=O)c1cccc(-c2ccc(O[C@H]3O[C@H](CO)[C@@H](O)[C@H](O)[C@@H]3O)c(C)c2)c1 [A] |  | 0% |  |
|  |  |  | CNC(=O)c1cccc(-c2ccc(O[C@H]3O[C@H](CO)[C@@H](O)[C@H](O)[C@@H]3F)c(OC)c2)c1 [Example 8, 3-[4-[(2R,3S,4S,5S,6R)-3-fluoro-4,5-dihydroxy-6-(hydroxymethyl)tetrahydropyran-2-yl]oxy-3-methoxy-phenyl]-N-methyl-benzamide] | 4 (1) ° C. |  | 5400 ± 200 nM |
|  |  |  | Cc1cc(-c2cccc([N+](=O)[O-])c2)ccc1O[C@H]1O[C@H](CO)[C@@H](O)[C@H](O)[C@@H]1F [Example 2, (2R,3S,4S,5S,6R)-5-fluoro-2-(hydroxymethyl)-6-((3-methyl-3′-nitro-[1,1′-biphenyl]-4-yl)oxy)tetrahydro-2H-pyran-3,4-diol] | 6.01 (1) ° C. |  | 1150 ± 350 nM |
